According to PubChem BioAssay (NCI):
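Protocol summary: plate cells (96-well), add compound at 5 concentrations, incubate 48 h, interpolate endpoints linearly. The concentration for 50% growth inhibition is given as GI50. Definition used: TGI = concentration required for complete inhibition of growth.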

Key:
Experiment in all cases: NCI-60 cell line screen, 48 h
[1] = test system: SN12C renal
[2] = test system: SK-MEL-5 melanoma
[3] = test system: COLO 205 colon
[4] = test system: CCRF-CEM leukemia
[5] = test system: MDA-MB-435
[6] = test system: IGROV1 ovarian
[7] = test system: LOX IMVI melanoma
[8] = test system: SNB-19 CNS
[9] = test system: SK-MEL-2 melanoma
[10] = test system: SK-OV-3 ovarian
[11] = test system: SK-MEL-28 melanoma
[12] = test system: HL-60(TB) leukemia
[13] = test system: SF-268 CNS
[14] = test system: NCI-H460 lung
[15] = test system: T-47D breast
[16] = test system: NCI-H522 lung
[17] = test system: MCF7 breast
[18] = test system: SR leukemia
[19] = test system: HOP-92 NSCLC
[20] = test system: SF-539 CNS
[21] = test system: SNB-75 CNS
[22] = test system: DU-145 prostate
[23] = test system: MDA-MB-468 breast
[24] = test system: KM12 colon
[25] = test system: MOLT-4 leukemia
[26] = test system: 786-0 renal
[27] = test system: U251 CNS
[28] = test system: UO-31 renal
[29] = test system: RPMI-8226 leukemia
[30] = test system: HS 578T breast
[31] = test system: UACC-62 melanoma
[32] = test system: SF-295 CNS
[33] = test system: RXF 393 renal
[34] = test system: HT29 colon
[35] = test system: CAKI-1 renal
[36] = test system: BT-549 breast
[37] = test system: OVCAR-3 ovarian
[38] = test system: TK-10 renal
[39] = test system: OVCAR-8 ovarian
[40] = test system: ACHN renal
[41] = test system: HCT-15 colon
[42] = test system: HOP-62 NSCLC
[43] = test system: PC-3 prostate
[44] = test system: EKVX NSCLC
[45] = test system: K-562 leukemia
[46] = test system: SW-620 colon
[47] = test system: UACC-257 melanoma
[48] = test system: HCC-2998 colon
[49] = test system: NCI-H23 lung
[50] = test system: OVCAR-4 ovarian
[51] = test system: MDA-MB-231 breast
[52] = test system: M14 melanoma
[53] = test system: A498 renal
[54] = test system: NCI/ADR-RES ovarian
[55] = test system: MALME-3M melanoma
[56] = test system: A549 NSCLC
[57] = test system: OVCAR-5 ovarian
[58] = test system: NCI-H226 lung
[59] = test system: HCT-116 colon

O=C(CNc1nc(-c2ccccc2)cs1)Nc1ccc([N+](=O)[O-])cc1Cl
GI50 [1]: 3.72 µM
TGI [1]: 13.9 µM
GI50 [2]: 3.66 µM
TGI [2]: 14 µM
GI50 [3]: 11.5 µM
TGI [3]: 23.7 µM
GI50 [4]: 3.05 µM
TGI [4]: 12.2 µM
GI50 [5]: 4.88 µM
TGI [5]: 16.9 µM
GI50 [6]: 4.29 µM
TGI [6]: 15.5 µM
GI50 [7]: 2.96 µM
TGI [7]: 11.7 µM
GI50 [8]: 7.71 µM
TGI [8]: 20.3 µM
GI50 [9]: 8.86 µM
TGI [9]: 21 µM
GI50 [10]: 6.18 µM
TGI [10]: 19.2 µM
GI50 [11]: 12.1 µM
TGI [11]: 24.5 µM
GI50 [12]: 2.8 µM
TGI [12]: 11 µM
GI50 [13]: 3.98 µM
TGI [13]: 16.2 µM
GI50 [14]: 9.34 µM
TGI [14]: 21.2 µM
GI50 [15]: 3.37 µM
TGI [15]: 13.5 µM
GI50 [16]: 2.9 µM
TGI [16]: 12 µM
GI50 [17]: 3.26 µM
TGI [17]: 13.4 µM
GI50 [18]: 4.67 µM
TGI [18]: 17.4 µM
GI50 [19]: 4.28 µM
TGI [19]: 16.7 µM
GI50 [20]: 5.36 µM
TGI [20]: 17.6 µM
GI50 [21]: 1.73 µM
TGI [21]: 9.94 µM
GI50 [22]: 10.6 µM
TGI [22]: 22.5 µM
GI50 [23]: 1.96 µM
TGI [23]: 4.88 µM
GI50 [24]: 4.17 µM
TGI [24]: 14.9 µM
GI50 [25]: 3.17 µM
TGI [25]: 11.6 µM
GI50 [26]: 3.3 µM
TGI [26]: 13.2 µM
GI50 [27]: 4.42 µM
TGI [27]: 16.8 µM
GI50 [28]: 3.37 µM
TGI [28]: 15.5 µM
GI50 [29]: 2.99 µM
TGI [29]: 13.2 µM
GI50 [30]: 3.74 µM
TGI [30]: 15.1 µM
GI50 [31]: 3.6 µM
TGI [31]: 15.4 µM
GI50 [32]: 4.47 µM
TGI [32]: 16.6 µM
GI50 [33]: 4.38 µM
TGI [33]: 15 µM
GI50 [34]: 7.63 µM
TGI [34]: 20.4 µM
GI50 [35]: 3.34 µM
TGI [35]: 14.5 µM
GI50 [36]: 2.29 µM
TGI [36]: 7.66 µM
GI50 [37]: 3.62 µM
TGI [37]: 14.1 µM
GI50 [38]: 8.04 µM
TGI [38]: 20.5 µM
GI50 [39]: 5.69 µM
TGI [39]: 18.3 µM
GI50 [40]: 5.51 µM
TGI [40]: 18.2 µM
GI50 [41]: 3.34 µM
TGI [41]: 12.8 µM
GI50 [42]: 7.02 µM
TGI [42]: 20 µM
GI50 [43]: 5.17 µM
TGI [43]: 17.9 µM
GI50 [44]: 3.44 µM
TGI [44]: 14.3 µM
GI50 [45]: 3.42 µM
TGI [45]: 13.9 µM
GI50 [46]: 4.47 µM
TGI [46]: 16.2 µM
GI50 [47]: 7.55 µM
TGI [47]: 20.2 µM
GI50 [48]: 6.94 µM
TGI [48]: 19.7 µM
GI50 [49]: 4.6 µM
TGI [49]: 17 µM
GI50 [50]: 6.55 µM
TGI [50]: 19.5 µM
GI50 [51]: 4.94 µM
TGI [51]: 17.1 µM
GI50 [52]: 3.6 µM
TGI [52]: 13.5 µM
GI50 [53]: 7.11 µM
TGI [53]: 20.1 µM
GI50 [54]: 4.11 µM
TGI [54]: 14.6 µM
GI50 [55]: 9 µM
TGI [55]: 21 µM
GI50 [56]: 6.05 µM
TGI [56]: 19 µM
GI50 [57]: 6.18 µM
TGI [57]: 20.2 µM
GI50 [58]: 6.78 µM
TGI [58]: 19.3 µM
GI50 [59]: 3.36 µM
TGI [59]: 12.6 µM
